Strand notation (5' to 3'): a small letter for the sugar, then the base; units joined by * are phosphorothioate-linked, units joined directly phosphodiester-linked; [ ] holds rarer units or linkages, { } end groups; capitals alone tell only the bases. e = 2'-O-(2-methoxyethyl) (MOE); k = constrained ethyl (cEt); [5mC] = 5-methylcytosine; d = 2'-deoxy (DNA); m = 2'-O-methyl
test system: Yap1 mRNA; experiment: Antisense inhibition of human Yap1 in SNU-449 cells by modified oligonucleotides, single dose (Example 5, RTS36584); format: cell-based; conditions: Table 39; SNU-449 cells, 10,000 cells per well, free uptake, 2,000 nM oligonucleotide, approx. 48 hours; RTS36584; normalized to RIBOGREEN; Yap1 mRNA relative to untreated control
Summary of the method: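 Values are % of untreated control: Yap1 mRNA by quantitative RT-PCR (RTS36584), normalized to RIBOGREEN total RNA. Oligonucleotides were dosed at 2,000 nM, free uptake, in SNU-449 cells, with roughly 48 h exposure before RNA isolation.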

| Substance | YAP1 (% UTC) |
| --- | --- |
| 1198390 (kA*dG*dG*dT*dA*dT*dA*dA*d[5mC]*dT*dG*kG*eG*k[5mC]*eA*kA; antisense) [Compound 1198390] | 37 |
| 1198450 (kT*dA*dA*dG*dT*dA*dA*dG*dG*dT*dT*kT*e[5mC]*k[5mC]*e[5mC]*kA; antisense) [Compound 1198450] | 42 |

same assay, conditions: Table 40 (separate experiment); SNU-449 cells, 10,000 cells per well, free uptake, 2,000 nM oligonucleotide, approx. 48 hours; RTS36584; normalized to RIBOGREEN; Yap1 mRNA relative to untreated control

| Substance | YAP1 (% UTC) |
| --- | --- |
| 1198721 (kA*eT*kG*dG*dA*dA*dA*dT*dT*dG*dT*d[5mC]*eT*e[5mC]*kA*kT; antisense) [Compound 1198721] | 48 |
| 1198767 (kA*eT*kT*d[5mC]*dA*dG*dA*dT*dT*dT*dA*dG*eG*eA*kT*kG; antisense) [Compound 1198767] | 65 |
| 1198743 (k[5mC]*eT*kT*dT*dT*dA*d[5mC]*dA*dT*dT*dA*dG*eG*eA*kA*k[5mC]; antisense) [Compound 1198743] | 86 |

same assay, conditions: Table 41; SNU-449 cells, 10,000 cells per well, free uptake, 2,000 nM modified oligonucleotide, approximately 48 hours; RTS36584; normalized to RIBOGREEN; Yap1 mRNA relative to untreated control cells

| Substance | YAP1 (% UTC) |
| --- | --- |
| 1198794 (antisense kA*eA*k[5mC]*dT*dT*dT*dA*dA*dA*dG*dT*dG*eT*eA*kT*kG) [Compound 1198794] | 74 |
| 1198639 (kT*kA*dG*dA*dG*dT*dA*dT*dG*dT*dG*dG*k[5mC]*eA*kA*eT; antisense) [Compound 1198639] | 32 |
| 1198666 (antisense kG*kT*dG*d[5mC]*dT*dT*dT*dG*dG*dA*dA*dG*kA*eT*k[5mC]*eT) [Compound 1198666] | 44 |

same assay, conditions: Table 42 (separate experiment); SNU-449 cells, 10,000 cells per well, free uptake, 2,000 nM modified oligonucleotide, approximately 48 hours; RTS36584; normalized to RIBOGREEN; Yap1 mRNA relative to untreated control cells

| Substance | YAP1 (% UTC) |
| --- | --- |
| 1198701 (kT*kT*dA*dA*dA*dG*dT*dG*dT*dA*dT*dG*kT*e[5mC]*kA*eG; antisense) [Compound 1198701] | 46 |
| 1198711 (kG*kA*d[5mC]*dT*dA*dA*dG*dT*dA*dA*dG*dG*kT*eT*kT*e[5mC]; antisense) [Compound 1198711] | 60 |

same assay, conditions: Table 43 experiment; SNU-449 cells, 10,000 cells per well, free uptake, 2,000 nM, approximately 48 hours; RTS36584; Yap1 mRNA normalized to RIBOGREEN, relative to untreated control cells

| Substance | YAP1 (% UTC) |
| --- | --- |
| 1198216 (kT*kA*dT*dA*dA*d[5mC]*dT*dG*dG*dG*d[5mC]*eA*eA*eA*kT*kT; antisense) [Compound 1198216] | 89 |
| 1198466 (antisense kA*kG*dA*dG*dT*dA*dT*dG*dT*dG*dG*e[5mC]*kA*eA*kT*eA) [Compound 1198466] | 12 |
| 1095595 (antisense k[5mC]*kA*d[5mC]*dT*dG*dA*dG*dG*dT*dA*dT*eA*eA*e[5mC]*kT*kG) [Compound 1095595] | 63 |
| 1198282 (kA*kG*dA*d[5mC]*dT*dA*dA*dG*dT*dA*dA*eG*eG*eT*kT*kT; antisense) [Compound 1198282] | 58 |
| 1198456 (kT*kG*dT*d[5mC]*dT*d[5mC]*dA*dT*dG*d[5mC]*d[5mC]*eT*kT*eA*kT*eA) [Compound 1198456] | 21 |
| 1198261 (kG*kT*dA*dA*dT*dA*dT*dT*dG*d[5mC]*dA*eA*eT*e[5mC]*kT*kG; antisense) [Compound 1198261] | 54 |

same assay, conditions: Table 44 experiment; SNU-449 cells, 10,000 cells per well, free uptake, 2,000 nM, approximately 48 hours; RTS36584; Yap1 mRNA normalized to RIBOGREEN, relative to untreated control cells

| Substance | YAP1 (% UTC) |
| --- | --- |
| 1095622 (antisense k[5mC]*kT*dG*dA*dG*dG*dT*dA*dT*dA*dA*e[5mC]*kT*eG*kG*eG) [Compound 1095622] | 44 |
| 1198891 (kA*kT*dT*dG*dT*d[5mC]*dT*d[5mC]*dA*dT*dG*k[5mC]*d[5mC]*kT*dT*kA) [Compound 1198891] | 18 |
| 1198474 (antisense kT*kA*dT*dA*dA*d[5mC]*dT*dG*dG*dG*d[5mC]*eA*kA*eA*kT*eT) [Compound 1198474] | 68 |
| 1198523 (kT*kT*dT*dA*dT*dG*dT*dA*dA*dT*dA*eT*kT*eG*k[5mC]*eA; antisense) [Compound 1198523] | 93 |

same assay, conditions: Table 45; Yap1 mRNA as percent of untreated control, SNU-449 cells, single dose

| Substance | YAP1 (% UTC) |
| --- | --- |
| 1198968 (kA*kG*dT*dA*dA*dG*dG*dT*dT*dT*d[5mC]*k[5mC]*d[5mC]*kA*dG*kA; antisense) [Compound 1198968] | 57 |
| 1198943 (kT*k[5mC]*dT*dT*dA*dT*dA*dT*dG*dG*dT*kT*dT*kT*dG*kT; antisense) [Compound 1198943] | 31 |

same assay, conditions: Table 46; Yap1 mRNA as percent of untreated control, SNU-449 cells, single dose

| Substance | YAP1 (% UT) |
| --- | --- |
| 1198822 (kT*kA*dT*dA*dA*d[5mC]*dT*dG*dG*dG*d[5mC]*kA*eA*kA*eT*kT; antisense) [Compound 1198822] | 97 |
| 1198809 (antisense kG*kG*dA*dA*dA*dT*dT*dG*dT*d[5mC]*dT*k[5mC]*eA*kT*eG*k[5mC]) [Compound 1198809] | 27 |
| 1198827 (kT*kT*dA*d[5mC]*dA*dT*dT*dA*dG*dG*dA*kA*e[5mC]*kA*eA*kG; antisense) [Compound 1198827] | 60 |
| 1198824 (kA*kG*dG*dT*dA*dT*dA*dA*d[5mC]*dT*dG*kG*eG*k[5mC]*eA*kA; antisense) [Compound 1198824] | 72 |

same assay, conditions: Table 48; Yap1 mRNA level relative to untreated control; modified oligonucleotides targeting SEQ ID NO.: 1 and 2

| Substance | YAP1 (% UT) |
| --- | --- |
| 1198294 (kA*kG*kA*dG*dT*dA*dT*dG*dT*dG*dG*d[5mC]*kA*eA*kT*eA; antisense) [Compound 1198294] | 13 |
| 1198326 (kT*kT*kA*dG*dG*dA*dT*dG*d[5mC]*dA*dT*dG*kG*eT*kT*eT; antisense) [Compound 1198326] | 84 |
| 1198313 (kA*kG*k[5mC]*dA*d[5mC]*dT*dT*dT*dT*dA*d[5mC]*dA*kT*eT*kA*eG; antisense) [Compound 1198313] | 31 |
| 1198307 (kT*kT*kA*d[5mC]*dA*dT*dT*dA*dG*dG*dA*dA*k[5mC]*eA*kA*eG; antisense) [Compound 1198307] | 49 |

same assay, conditions: Table 49; Yap1 mRNA level relative to untreated control; modified oligonucleotides targeting SEQ ID NO.: 1 and 2

| Substance | YAP1 (% UT) |
| --- | --- |
| 1198338 (k[5mC]*kT*k[5mC]*dT*dT*dA*dT*dA*dT*dG*dG*dT*kT*eT*kT*eG; antisense) [Compound 1198338] | 24 |
| 1198546 (antisense kG*kA*kA*dA*dT*dT*dG*dT*d[5mC]*dT*d[5mC]*dA*kT*kG*k[5mC]*e[5mC]) [Compound 1198546] | 11 |
| 1198340 (kA*kA*k[5mC]*dT*d[5mC]*dT*dT*dA*dT*dA*dT*dG*kG*eT*kT*eT; antisense) [Compound 1198340] | 123 |
| 1198565 (antisense kT*kT*kA*d[5mC]*dA*dT*dT*dA*dG*dG*dA*dA*k[5mC]*kA*kA*eG) [Compound 1198565] | 53 |

same assay, conditions: Table 50; Yap1 mRNA remaining as percent of untreated control (UT), SNU-449 cells, single dose

| Substance | YAP1 (% UT) |
| --- | --- |
| 1198602 (antisense kA*kT*kA*dT*dT*dG*d[5mC]*dA*dA*dT*d[5mC]*dT*kG*kT*k[5mC]*eT) [Compound 1198602] | 29 |
| 1198604 (antisense kT*kA*kA*dT*dA*dT*dT*dG*d[5mC]*dA*dA*dT*k[5mC]*kT*kG*eT) [Compound 1198604] | 48 |
| 1198626 (kA*kG*kA*d[5mC]*dT*dA*dA*dG*dT*dA*dA*dG*kG*kT*kT*eT; antisense) [Compound 1198626] | 99 |

same assay, conditions: Table 51; Yap1 mRNA remaining as percent of untreated control (UT), SNU-449 cells, single dose

| Substance | YAP1 (% UT) |
| --- | --- |
| 1197257 (antisense kT*k[5mC]*kA*dG*mA*dT*dT*dT*dA*dG*dG*dA*dT*kG*k[5mC]*kA) [Compound 1197257] | 20 |
| 1197275 (kA*kA*kG*dT*mA*dA*dG*dG*dT*dT*dT*d[5mC]*d[5mC]*k[5mC]*kA*kG) [Compound 1197275] | 30 |
| 1197274 (kA*kG*kT*dA*mA*dG*dG*dT*dT*dT*d[5mC]*d[5mC]*d[5mC]*kA*kG*kA) [Compound 1197274] | 31 |

same assay, conditions: Table 52; Yap1 mRNA, modified oligonucleotides targeting SEQ ID NO: 1 and 2

| Substance | YAP1 (% UT) |
| --- | --- |
| 1200873 (kT*kT*kA*dG*dA*mC*dT*dA*dA*dG*dT*dA*dA*kG*kG*kT; antisense) [Compound 1200873] | 55 |
| 1200840 (k[5mC]*kT*kT*dA*dT*mA*dT*dG*dG*dT*dT*dT*dT*kG*kT*kG; antisense) [Compound 1200840] | 48 |
| 1200803 (kG*kG*kT*dA*dT*mA*dA*d[5mC]*dT*dG*dG*dG*d[5mC]*kA*kA*kA; antisense) [Compound 1200803] | 22 |
| 1200805 (kG*kA*kG*dG*dT*mA*dT*dA*dA*d[5mC]*dT*dG*dG*kG*k[5mC]*kA; antisense) [Compound 1200805] | 50 |
| 1200855 (kT*kT*kT*dA*dT*mG*dT*dA*dA*dT*dA*dT*dT*kG*k[5mC]*kA; antisense) [Compound 1200855] | 56 |
| 1200841 (kT*k[5mC]*kT*dT*dA*mU*dA*dT*dG*dG*dT*dT*dT*kT*kG*kT; antisense) [Compound 1200841] | 76 |
| 1200826 (kG*kT*kG*d[5mC]*dT*mU*dT*dG*dG*dA*dA*dG*dA*kT*k[5mC]*kT; antisense) [Compound 1200826] | 26 |

same assay, conditions: Yap1 mRNA, percent of untreated control; modified oligonucleotides targeting SEQ ID NO: 1 and 2; Table 47

| Substance | YAP1 (% UT) |
| --- | --- |
| 1197186 (antisense kT*kT*kA*dA*dG*d[5mC]*dA*d[5mC]*dT*dT*dT*dT*dA*k[5mC]*kA*kT) [Compound 1197186] | 65 |
| 1197189 (antisense kT*kT*kT*dG*dG*dA*dA*dG*dA*dT*d[5mC]*dT*dG*kA*kA*kA) [Compound 1197189] | 71 |

Source: patent US11214803B2, “Modulators of YAP1 expression” (Ionis Pharmaceuticals, Inc., priority 2019, dated 2022)
